The results in this text go back to EP0671410A1, “Antiviral compounds” (priority 1989, dated 1991).

Test [1] has as its system Influenza A and B strains. Kind of test: microbe, parasite or virus in culture. The conditions noted are these: in Gallus gallus, read-out: Anti-influenza Activity CE cells IC50,µM. In kind it is cell-based.
Test [2] concerns Influenza A and B strains. The arrangement: species or system Mice. Particulars: in vivo.
Test [3] concerns Respiratory Syncytial Virus (RSV). Kind of test: microbe, parasite or virus in culture. It counts as cell-based. The conditions noted are these: human respiratory syncytial virus, BSC-1; BS-C-1 cells (African Green Monkey kidney cells); plaque/foci reduction; read-out: Anti-respiratory syncytial virus BS-C-1 cells IC₅₀.

Regarding `Nc1nc(N)c2ncn([C@@H]3O[C@H](CO)[C@@H](O)[C@H]3F)c2n1` [Example 6, 2,6-Diamino-9-(2-deoxy-2-fluoro-β-D-ribofuranosyl)-9H-purine], the IC50 in test [1] is 0.6 µM. In test [2], the “Anti-influenza Activity Mouse log10 reduction in virus titre. (Average of 5 Mice)” value is recorded as “+(2.1) log10”.
`Nc1nc2c(ncn2[C@@H]2O[C@H](CO)[C@@H](O)[C@H]2F)c(=O)[nH]1` [Example 7, 9-(2-Deoxy-2-fluoro-β-D-ribofuranosyl)guanine]: the IC50 was 0.8 to 2 µM in test [1] and 26.2 µM in test [3]. In test [2], the “Anti-influenza Activity Mouse log10 reduction in virus titre. (Average of 5 Mice)” value is “+(2.4) log10”.
For `Nc1ncc2ncn([C@@H]3O[C@H](CO)[C@@H](O)[C@H]3F)c2n1` [Example 9, 2-Amino-9-(2-deoxy-2-fluoro-β-D-ribofuranosyl)-9H-purine], in test [2], the “Anti-influenza Activity Mouse log10 reduction in virus titre. (Average of 5 Mice)” value is on record as “+(1.6) log10”.
For the compound `Nc1ncnc2c1ncn2[C@@H]1O[C@H](CO)[C@@H](O)[C@H]1F` [Example 8, 9-(2-Deoxy-2-fluoro-β-D-ribofuranosyl)adenine], the IC50 in test [1] worked out at 4 µM. In addition, the “Anti-influenza Activity Mouse log10 reduction in virus titre. (Average of 5 Mice)” value in test [2] is on record as “+(2.3) log10”.
Regarding `COc1nc(N)nc2c1ncn2[C@@H]1O[C@H](CO)[C@@H](O)[C@H]1F` [Example 12, 2-Amino-9-(2-deoxy-2-fluoro-β-D-ribofuranosyl)-6-methoxy-9H-purine], the values for the IC50 in test [1] and in test [3] were 0.4 µM and 6.3 µM, respectively. Further, the “Anti-influenza Activity Mouse log10 reduction in virus titre. (Average of 5 Mice)” value in test [2] is on record as “+(1.9) log10”.
